The test system of assay [1] is Clostridium difficile ATCC 9689. As to the kind of experiment: MIC broth dilution per CLSI M11-A8, modified Brucella broth. Type of assay: cell-based. To be noted: strain ATCC 9689; Brucella broth mix + yeast, no blood/hemin; n = 12. As to the method:
(§1) MIC experiments for Puupehenone were carried out in accordance with CLSI M11-A8 for broth dilutions. The levels of antimicrobial were achieved via serial dilution and listed as follows; 32 ug/mL, 16 ug/mL. 8 ug/mL, 4 ug/mL, 2 ug/mL, 1 ug/mL, 0.5 ug/mL, 0.25 ug/mL, 0.125 ug/mL, 0.0625 ug/mL/. Metranidazole was used a positive control. The only deviation from the CLSI was a modification to the media. […] This was noted due to comparisons with previous BHIS experiments. Thus, the media was modified to resemble the BHIS media, with only Brucella broth mix (28 g/L) and yeast (5 g/L). The reason for the decreased efficacy of the drug when in blood based media is still being investigated. The MICs against different C. difficile strains (ATCC9689, NAP1027, and 630 were determined for both Puupehone and Matranidazole See Table 1.

Assay [2] deals with Clostridium difficile 630. Described as above. Type of assay: cell-based. To be noted: strain 630; Brucella broth mix + yeast, no blood/hemin; n = 12. As for the experimental part: as §1
Assay [3] relates to Clostridium difficile NAP1027. Described as above. To be noted: strain NAP1027; Brucella broth mix + yeast, no blood/hemin; n = 12. Type of assay: cell-based. As to the method:
as §1

Assay [4] deals with C. difficile strain VPI 10463 or strain ATCC 9689. Nature of the assay: 96-well growth inhibition test in BHIS media, optical density readout. Type of assay: cell-based, Clostridium difficile. The note with it: puupehenone in MeOH, 40 μL-well, Trial 1 (0 μL-well 0.0816). As to the method:
Tests were performed in a Coy anaerobic chamber (Coy Labs Grass Lake, Mich.). The compound Puupehenone was dissolved in either methanol or DMSO for testing. Using a 96-well plate, 200 μL of BHIS media was added to 12 wells. One was the control (BHIS media alone). The sequential nine wells have increments of 5 μL of puupehenone. The remaining two wells have no puupehenone but one has 20 μL and another has 40 μL of methanol. These last wells are a separate test to determine if methanol influences the growth of C. difficile. Then 10 μL of C. difficile strain VPI 10463 or strain ATCC 9689 was added to each well except for the control. Trials with DMSO were performed in increments of 2 μL of puupehenone. Effects of puupehenone on C. difficile were tested based on optical density (e.g. OD500 nm, OD600 nm or OD630 nm, inter alia) using an optical reader as is standard in the art. Results

The values below come from US10314813B2, “Antimicrobial compositions for Clostridium difficile” (University of Central Florida Research Foundation, Inc., priority 2017, dated 2019).

One may read the MIC as the lowest concentration found to suppress growth. As to `Cc1ncc([N+](=O)[O-])n1CCO` [Metranidazole, reference compound], the MIC in assay [1] was determined as 0.25 µg/mL; in assay [2] it was 0.5 µg/mL; in assay [3], 0.25 µg/mL.

Regarding `CC1(C)CCC[C@]2(C)[C@H]3C=C4C=C(O)C(=O)C=C4O[C@@]3(C)CC[C@@H]12` [Puupehenone, puupehenone], the MIC is 4 µg/mL in assay [1], 8 µg/mL in assay [2] and 8 µg/mL in assay [3]. Moreover, in assay [4], the “optical density (growth of C. difficile)” value was determined as 0.0742.
